# Measured values reported in patent US9045524B2, “Selective caspase inhibitors and uses thereof” (NOVAGENESIS FOUNDATION, priority 2009, dated 2015).
# Assays:
# Caspase-1 = Caspase-1 (Homo sapiens (Human), UniProt P29466); assay: Caspase-1 Inhibitor Drug Screening Kit, fluorometric (AFC liberation); assay type: biochemical; conditions: 30-minute incubation at 37° C.; approximations of the average values; read-out: Caspase enzymatic activity, IC50 (uM) Caspase 1
# Method: (§1) The level of inhibition of caspase-1, -3, -5, -7, -9 activity was determined by comparison of the relative fluorescence intensity in samples with or without the compound.
# Caspase-5 = Caspase-5 (Homo sapiens (Human), UniProt P51878); assay: Caspase-5 Inhibitor Drug Screening Kit, fluorometric (AFC liberation); assay type: biochemical; conditions: 30-minute incubation at 37° C.; approximations of the average values; read-out: Caspase enzymatic activity, IC50 (uM) Caspase 5
# Method: as §1
# Glo3/7 = Glo3/7 assay; assay type: biochemical
# EAE in C57BL/6 mice = assay: Chronic EAE mouse model (MOG35-55 immunization), daily clinical score and body weight; assay type: in vivo; set-up: key to Delay in onset of the disease / Reduction in severity of the disease / Reduction in body weight loss: +++: high level improvement; ++: moderate improvement; +: small improvement; −: no improvement
# How it was run: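 Female C57BL/6 mice, 7–8 weeks old, were immunized s.c. with 100 μg MOG35-55 in CFA containing M. tuberculosis H37Ra, plus 200 ng pertussis toxin i.p. on days 0 and 2. […], compound in 2.5% DMSO/PBS was given i.p.; vehicle for placebo. Clinical score (0–5) and body weight were recorded daily.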
# Caspase-6 = Caspase-6 (Homo sapiens (Human), UniProt P55212); assay: Fluorometric enzymatic assay, active recombinant Caspase-6; assay type: biochemical; conditions: 10-point titration 0.1 nM to 3.3 μM, 30-minute incubation at 37° C.; read-out: IC50 values (μM) Caspase-6
# Method: . In brief, each compound was serially diluted for a final test concentration range of 0.1 nM to 3.3 μM (10-point titration). Each active recombinant Caspase (Active Recombinant Caspase Set IV™ (BioVision, Cat# K233-10-25)) was added to the respective wells of the 96-well High Efficiency™ plates (Molecular Devices, Cat#75-000-0005), followed by the addition of the diluted test compounds. DMSO (Final=1%) or Z-VAD-FMK (Caspase-Family Inhibitor, Z-VAD-FMK (BioVision, Cat#1010-100), Final concentration=20 uM) was added in the designated wells as a background control or positive inhibitor control respectively. Each dilution of the test compounds was tested in duplicates, whereas the DMSO or Z-VAD-FMK controls were tested in triplicates. The synthetic peptide substrate specific for each Caspase (BioVision) was then added to the respective wells, which when cleaved by the active caspase releases free AFC that can be quantified by fluorometry. After a 30-minute incubation at 37° C., the plates were read using the Flexstation 3™ with a 400 nm excitation filter and a 505 nm emission filter (cutoff at 495 nm). The inhibition efficiency and the IC50 values of the test compounds were then determined by comparing the fluorescence intensity (FI) of the test compounds with that of the DMSO control.
# The SoftMax Pro Software™ (v5.2 rev C, Molecular Devices) was used for data analysis. The % Inhibition is calculated by: % Inhibition=[FI(DMSO)−FI(test sample)/FI(DMSO)]×100. The % Inhibition vs. Log(concentration) was plotted, and the curve was fitted using the 5-parameter fit of the software.
# Caspase-7 = Caspase-7 (Homo sapiens (Human), UniProt P55210); assay: Fluorometric enzymatic assay, active recombinant Caspase-7
# Method: (§2) Each dilution of the test compounds was tested in duplicates, whereas the DMSO or Z-VAD-FMK controls were tested in triplicates. […] The inhibition efficiency and the IC50 values of the test compounds were then determined by comparing the fluorescence intensity (FI) of the test compounds with that of the DMSO control.
# Caspase-9 = Caspase-9 (Homo sapiens (Human), UniProt P55211); assay: Fluorometric enzymatic assay, active recombinant Caspase-9; conditions: read-out: IC50 values (μM) Caspase-9; 10-point titration 0.1 nM to 3.3 μM, 30-minute incubation at 37° C.
# Method: as §2
# [1] = FIG. 1, i.p. from day 10 to 16 post immunization, versus placebo
# [2] = FIG. 3, i.p. from day 14 to 19 post immunization, versus placebo
# [3] = FIG. 4, administration for 15 days from day 12 post-immunization, versus placebo
# [4] = average overall effects on the EAE model, i.p.
# Caspase-7, sequence (P55210 whole entry, looked up): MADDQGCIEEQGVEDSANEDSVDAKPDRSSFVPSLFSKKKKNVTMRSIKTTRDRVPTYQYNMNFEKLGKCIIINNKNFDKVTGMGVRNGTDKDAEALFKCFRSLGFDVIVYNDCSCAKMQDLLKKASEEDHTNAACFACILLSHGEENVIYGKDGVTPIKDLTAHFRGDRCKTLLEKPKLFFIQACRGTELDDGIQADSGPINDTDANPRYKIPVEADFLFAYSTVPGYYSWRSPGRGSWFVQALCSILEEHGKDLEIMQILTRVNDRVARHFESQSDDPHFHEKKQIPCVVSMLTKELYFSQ
# Caspase-7, sequence (P55210 whole entry, looked up): as above
# Caspase-6, sequence (P55212 24-179): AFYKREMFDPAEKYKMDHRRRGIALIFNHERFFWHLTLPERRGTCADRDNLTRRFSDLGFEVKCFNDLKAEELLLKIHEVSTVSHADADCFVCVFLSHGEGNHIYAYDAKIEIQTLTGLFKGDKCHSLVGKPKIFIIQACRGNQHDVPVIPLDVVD
# Caspase-6, sequence (P55212 194-293): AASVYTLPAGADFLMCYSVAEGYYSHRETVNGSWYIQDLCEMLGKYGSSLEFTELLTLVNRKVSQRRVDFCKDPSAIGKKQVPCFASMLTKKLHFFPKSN
# Caspase-5, sequence (P51878 137-434): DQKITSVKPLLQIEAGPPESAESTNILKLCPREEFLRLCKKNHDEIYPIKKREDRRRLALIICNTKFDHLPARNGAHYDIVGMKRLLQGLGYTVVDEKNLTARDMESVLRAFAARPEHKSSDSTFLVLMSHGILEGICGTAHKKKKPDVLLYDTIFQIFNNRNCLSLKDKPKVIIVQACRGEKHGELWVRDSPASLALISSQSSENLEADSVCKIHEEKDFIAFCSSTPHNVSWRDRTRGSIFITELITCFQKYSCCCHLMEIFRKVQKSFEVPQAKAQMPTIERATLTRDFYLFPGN
# Caspase-1, sequence (P29466 120-404): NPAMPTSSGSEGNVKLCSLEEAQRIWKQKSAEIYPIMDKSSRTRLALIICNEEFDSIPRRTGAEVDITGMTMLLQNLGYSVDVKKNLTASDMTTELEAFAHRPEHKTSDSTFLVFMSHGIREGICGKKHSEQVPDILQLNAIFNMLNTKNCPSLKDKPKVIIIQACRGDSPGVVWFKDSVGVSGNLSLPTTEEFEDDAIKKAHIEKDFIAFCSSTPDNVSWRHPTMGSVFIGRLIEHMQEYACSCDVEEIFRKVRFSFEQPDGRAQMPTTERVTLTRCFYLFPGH
# Caspase-9, sequence (P55211 whole entry, looked up, change not shown): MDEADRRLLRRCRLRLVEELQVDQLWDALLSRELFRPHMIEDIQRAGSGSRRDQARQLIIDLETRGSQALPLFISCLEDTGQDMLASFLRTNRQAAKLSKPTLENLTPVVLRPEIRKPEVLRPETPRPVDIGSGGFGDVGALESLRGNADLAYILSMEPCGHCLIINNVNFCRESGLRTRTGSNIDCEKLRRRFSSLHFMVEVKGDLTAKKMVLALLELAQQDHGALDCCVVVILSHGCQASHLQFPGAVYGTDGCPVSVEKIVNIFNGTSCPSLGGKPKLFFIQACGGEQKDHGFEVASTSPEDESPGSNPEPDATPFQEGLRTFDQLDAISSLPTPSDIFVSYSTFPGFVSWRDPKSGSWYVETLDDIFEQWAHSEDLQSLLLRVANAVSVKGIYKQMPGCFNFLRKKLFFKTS
# Caspase-9, sequence (P55211 whole entry, looked up, change not shown): as above
smiles,measurement,setting,value
"CC(C)[C@H](NC(=O)[C@@H](NC(=O)[C@H](CC(=O)O)NC(=O)OCc1ccccc1)c1ccccc1)C(=O)N[C@H](/C=C/S(C)(=O)=O)CC(=O)O [Compound 53, Z-Asp-Phg-Val-Aspmethyl vinyl sulfone]",IC50,Caspase-1,2 µM
same,IC50,Caspase-5,> 10 µM
same,IC50,Glo3/7,0.1 µM
same,Cumulative clinical score,EAE in C57BL/6 mice; [1],significantly lower compared to placebo
same,Disease onset,EAE in C57BL/6 mice; [1],delayed
same,Loss of body weight,EAE in C57BL/6 mice; [1],less than the placebo
same,clinical severity of the disease,EAE in C57BL/6 mice; [1],reduced significantly
same,maximal clinical score,EAE in C57BL/6 mice; [1],significantly lower compared to placebo
same,delay of the clinical score (symptoms of EAE),"EAE in C57BL/6 mice; FIG. 3, i.p. from day 14 to 19 post immunization, twice the concentration of compound 53",delayed significantly the clinical score
same,Loss of body weight,EAE in C57BL/6 mice; [2],less than in the placebo group
same,effects on the clinical course of EAE,EAE in C57BL/6 mice; [2],ameliorating effects
same,Loss of body weight,EAE in C57BL/6 mice; [3],less than placebo
same,severity of the disease,EAE in C57BL/6 mice; [3],began to reverse the effects of the disease and reduced the severity of the disease continuously
same,Delay in onset of the disease,EAE in C57BL/6 mice; [4],+++
same,Reduction in body weight loss,EAE in C57BL/6 mice; [4],+++
same,Reduction in severity of the disease,EAE in C57BL/6 mice; [4],+++
same,IC50,Caspase-6,> 3.33 µM
same,inhibitory activity towards Caspase-7,Caspase-7; FIG. 5,high inhibitory activity
same,IC50,"Caspase-7; read-out: IC50 values (μM) Caspase-7, 10-point titration 0.1 nM to 3.3 μM, 30-minute incubation at 37° C.",0.8 µM
same,IC50,Caspase-9,> 3.33 µM
